The values below are quoted from earlier work in patent EP0214616A2, “Acetylenic prostaglandins” (G.D. Searle & Co., priority 1985, dated 1987).

The data set concerns gastric secretion. The following applies: at the highest dose tested (100ug/kg).

On to `CCCCC(C)(O)C/C=C/[C@H]1[C@H](O)CC(=O)[C@@H]1CCC#CCCC(=O)OC` (mixture of isomers) [Example C90001], for which the gastric antisecretory activity entry is “devoid of gastric antisecretory activity”.
